From PubChem BioAssay (NCI)
“And” between values parts separate entries of the source, which are not always exact repeats. Equal entries are not always repeated.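 How tested: cells in 96-well plates exposed to compound for 48 hours at five concentrations. Abbreviation: GI50, concentration required for 50% inhibition of growth. TGI is the concentration that stops growth completely.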 The source made the active and inactive calls. Cut-off read from the data, not from the text of the source: active = GI50 below about 0.43 µM; inactive = the rest.

System: MDA-MB-468 breast
Test: NCI-60 cell line screen, 48 h

Q: Which GI50 does the source give for CCCC[n+]1c(/C=C\c2c(OC)cc(OC)cc2OC)ccc2ccccc21 here?
A: 0.241 µM

Q: What about the TGI of the same compound?
A: 1.38 µM

Q: How did the GI50 turn out when CCCCCc1cc[n+](CC(=O)c2ccc([N+](=O)[O-])cc2)cc1 was run?
A: 2.17 µM

Q: What about the TGI of the same compound?
A: 8.06 µM

Q: Which results are given for CN(C)CCC=C1c2ccccc2C(C)(C)c2ccccc21?
A: GI50: 2.59 µM; TGI: 14 µM

Q: With CC(C)(CCN=C(N)Nc1ccccn1)c1ccc(C(F)(F)F)cc1 as the compound, how does the GI50 read?
A: 7.07 µM

Q: And the TGI?
A: 22.3 µM

Q: What does the source list for Cc1ccc(/C=C/C(=N/N=C(N)N)c2ccccc2)cc1?
A: GI50: 0.509 µM; TGI: 4.13 µM

Q: How did the GI50 turn out when C=C1CCC2C3(C)COC(c4c(OC)cccc4OC)OC3CCC2(C)C1C/C=C1/C(=O)OCC1O (stereo not drawn) was run?
A: 1.47 µM

Q: And the TGI?
A: 3.35 µM

Q: Which GI50 does the source give for CN1CC[C@]2(c3cccc(O)c3)CC(=O)/C(=C/c3ccccc3)[C@H]1C2 here?
A: 2.19 µM

Q: And the TGI?
A: 6.2 µM

Q: Which GI50 does the source give for C=C1CC[C@@H]2[C@](C)(COC(C)=O)[C@H](OC(C)=O)CC[C@@]2(C)[C@@H]1CC(Nc1ccc(S(=O)(=O)Nc2cc(C)on2)cc1)C1=CCOC1=O (stereo partly drawn) here?
A: 1.49 µM

Q: And the TGI?
A: 3.29 µM

Q: How did the GI50 turn out when Nc1ccccc1NC(=O)c1ccc(CN2CCC/C(=C\c3ccccn3)C2=O)cc1 was run?
A: 1.33 µM

Q: What about the TGI of the same compound?
A: 3.88 µM

Q: How did the GI50 turn out when CO[C@]12C=C/C(=C(/C(=O)OCc3cccnc3)C(=O)CCCCCCCC[C@@]3(OC)C=C/C(=C(/C(=O)OCc4cccnc4)C(=O)CCCCCCCC1)O3)O2 was run?
A: 0.919 µM

Q: What about the TGI of the same compound?
A: 2.3 µM

Q: O=c1c2cccc(F)c2sc2c(N3CCNCC3)nc3ccccc3c12 was tested. Which GI50 did it give?
A: 1.46 µM

Q: What about the TGI of the same compound?
A: 3.1 µM

Q: With COC(C(=O)C(O)C(C)O)C1Cc2cc3cc(OC4CC(OC5CC(O)C(O)C(C)O5)C(O)C(C)O4)c(C)c(O)c3c(O)c2C(=O)C1OC1CC(OC2CC(O)C(OC3CC(C)(O)C(O)C(C)O3)C(C)O2)C(O)C(C)O1 (stereo not drawn) as the compound, how does the outcome read?
A: inactive

Q: How did the GI50 turn out when Cc1cc2nc3ccc(=[N+](C)C)cc-3sc2cc1N was run?
A: 0.455 µM and 0.618 µM

Q: And the TGI?
A: 2.18 µM and 3.82 µM

Q: CNc1cc2nc3cc(NC)c(C)cc3cc2cc1C was tested. Which GI50 did it give?
A: 0.242 µM

Q: What about the TGI of the same compound?
A: 1.94 µM

Q: Which GI50 does the source give for O=C(O)C1C2C=CC(C2)C1C(=O)O (stereo not drawn) here?
A: > 100 µM

Q: And the TGI?
A: > 100 µM

Q: How did the GI50 turn out when CC[C@@H](C(=O)[C@H](C)[C@H](O)[C@@H](C)[C@H]1O[C@H]([C@@H](CC)C(=O)O)CC[C@H]1C)C1O[C@]2(C=C[C@@H](O)[C@]3(CC[C@@](C)([C@H]4CC[C@](O)(CC)[C@H](C)O4)O3)O2)[C@H](C)C[C@@H]1C (stereo partly drawn) was run?
A: 0.194 µM

Q: And the TGI?
A: 1.85 µM

Q: What does the source list for CCOC(=O)c1ccc2c(c1)nc(/C=C/c1ccc(Cl)cc1)n2-c1cc(C(C)(C)C)[nH]n1?
A: GI50: 4.68 µM; TGI: 95.6 µM

Q: Which results are given for O=C(N=Nc1c(O)[nH]c2ccccc12)c1oc2ccccc2c1CN1CCN(c2ccccc2)CC1?
A: GI50: 1.24 µM; TGI: 3.89 µM

Q: CCCCCCC/C=C/[C@H]1O[C@]2(O)C(=O)C=C3C[C@@H](O[C@@H]4O[C@H](CO)[C@@H](O)C(O)[C@@H]4O)C[C@@H]3[C@H]2C=C1C (stereo partly drawn) was tested. Which GI50 did it give?
A: 3.42 µM

Q: And the TGI?
A: 11.4 µM

Q: Which results are given for O=C1C(Nc2ccc(Br)cc2)=C(I)C(=O)c2ncccc21?
A: GI50: 0.97 µM; TGI: 1.93 µM

Q: CCCCCCCCCCC/C=C\C[C@H](O)C/C=C1/C(=O)C=C[C@@H]1C/C=C\CCCC(=O)OC was tested. Which GI50 did it give?
A: 0.864 µM

Q: What about the TGI of the same compound?
A: 3.76 µM

Q: What does the source list for c1ccc(Nc2nc(-c3ccccn3)cs2)nc1?
A: GI50: 1.13 µM; TGI: 11.5 µM

Q: Which GI50 does the source give for Clc1nc(Cl)c2c3c(sc2n1)CCCC3 here?
A: 2.1 µM

Q: For Fc1ccc(-c2nn3c(-c4cc(C(F)(F)F)cc(C(F)(F)F)c4)nnc3s2)cc1, which GI50 is on record?
A: 2.53 µM

Q: And the TGI?
A: > 50 µM

Q: For COc1cccc(-n2cc(-c3nc(Nc4cc(C)[nH]n4)c4ccccc4n3)nn2)c1, which GI50 is on record?
A: 4.32 µM

Q: What about the TGI of the same compound?
A: 15.7 µM

Q: For O=C(CCCCCCN1CC(=O)N2[C@@H](c3cccc(Br)c3)c3[nH]c4ccccc4c3C[C@H]2C1=O)NO, which GI50 is on record?
A: 2.09 µM

Q: And the TGI?
A: 5.47 µM

Q: With CCN(Cc1ccccc1Cl)c1ccc(CO)c(Cl)c1 as the compound, how does the TGI read?
A: 0.116 µM

Q: Which results are given for O=c1c2c(c3ccccc3n1-c1ccccc1)NC(=S)NC2c1ccc(Cl)cc1 (stereo not drawn)?
A: GI50: 19 µM; TGI: > 100 µM

Q: NC1CCC(Nc2nc(NCc3cc(Cl)ccc3O)c3ncn(C4CCCC4)c3n2)CC1 (stereo not drawn) was tested. Which GI50 did it give?
A: 0.158 µM

Q: What about the TGI of the same compound?
A: 0.468 µM

Q: How did the GI50 turn out when Clc1cc2c(nn1)Nc1ccccc1S2 was run?
A: > 100 µM

Q: What about the TGI of the same compound?
A: > 100 µM

Q: How did the GI50 turn out when Cc1cccc2nc3cccc(C(=O)NCCNCCNCCNC(=O)c4cccc5nc6cccc(C)c6nc45)c3nc12 was run?
A: 0.0172 µM

Q: And the TGI?
A: 1.02 µM

Q: For COC(=O)c1ccc(NC2=C/C(=N/S(=O)(=O)c3ccc(C(=O)O)cc3)c3ccccc3C2=O)cc1, which GI50 is on record?
A: 1.71 µM

Q: And the TGI?
A: 4.04 µM

Q: For COc1cc(/C=C2\Oc3cc(OCCCN4CCCC4)ccc3C2=O)cc(OC)c1, which GI50 is on record?
A: 2.93 µM

Q: And the TGI?
A: 13 µM

Q: Which results are given for COc1ccc(-c2nn(-c3cccc(NC(=O)Nc4ccccc4)c3)cc2-c2ccncc2)cc1Cl?
A: GI50: 2.26 µM; TGI: 6.43 µM

Q: Which GI50 does the source give for COc1cc2nc(-c3ccc(Cl)cc3)cc(OCCCN3CCCC3)c2cc1OC here?
A: 1.28 µM

Q: What about the TGI of the same compound?
A: 3.11 µM

Q: Which results are given for O=[N+]([O-])c1ccc(Sc2nc(Cl)nc(NC3CCCC3)n2)cc1?
A: GI50: 2.1 µM; TGI: 7.13 µM

Q: Nc1nc2c(nnn2C2OC(CO)C(O)C2O)c(=O)[nH]1 (stereo not drawn) was tested. Which GI50 did it give?
A: 0.488 µM

Q: What about the TGI of the same compound?
A: 5.37 µM

Q: Which GI50 does the source give for Nc1ccc(-c2nnc(SCc3ccc(O)c4ncccc34)o2)cc1 here?
A: 0.0387 µM

Q: And the TGI?
A: 1.16 µM

Q: For CSc1ccc2c(c1)N(CCC1CCCCN1C)c1ccccc1S2 (stereo not drawn), which GI50 is on record?
A: 1.78 µM

Q: And the TGI?
A: 3.92 µM

Q: What does the source list for CC1=C(C(=O)Nc2ccc3[nH]ncc3c2)C(c2ccc(Cl)c(Cl)c2)CC(=O)N1 (stereo not drawn)?
A: GI50: > 18 µM; TGI: > 25 µM

Q: Cc1[nH]c(C(=O)Nc2ccccc2OC2CCNCC2)c(Cl)c1Cl was tested. Which GI50 did it give?
A: 0.93 µM

Q: What about the TGI of the same compound?
A: 1.9 µM

Q: How did the GI50 turn out when CCC(C)[C@H](NC(=O)NC(=O)NC(=O)CI)C(=O)OC (stereo partly drawn) was run?
A: 3.54 µM

Q: And the TGI?
A: 12.6 µM

Q: With COc1ccc(-c2nc(Nc3ccc(-c4nc5ccccc5[nH]4)cc3)nc(N3CCOCC3)n2)cc1 as the compound, how does the GI50 read?
A: 2.92 µM

Q: And the TGI?
A: 7.65 µM
